Among the test systems are MDA-MB-435; PC-3 prostate; HS 578T breast; MDA-MB-231 breast; 786-0 renal; T-47D breast; DU-145 prostate; BT-549 breast; KM20L2 colon; XF 498 CNS; LXFL 529 NSCLC; M19-MEL melanoma; DMS 114 small cell lung; SN12K1 renal; P388/ADR leukemia; P388 leukemia.
Holding throughout (experiment): NCI tumour cell line growth inhibition, 48 h

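Step 1: Grow cells in 96-well plates. Step 2: Expose to compound for 48 hours at 5 concentrations. Step 3: Interpolate endpoints linearly; if unreached, use highest concentration. The concentration for 50% growth inhibition is given as GI50. TGI is the concentration that stops growth completely.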

For the compound `O=C(CC(Cl)=C(Cl)Cl)c1ccccc1`, the TGI in the test on MDA-MB-435 was over 100 µM; with PC-3 prostate, over 100 µM; in the test on HS 578T breast, over 100 µM; with MDA-MB-231 breast, over 100 µM; in the test with 786-0 renal, 48 µM; in the test on T-47D breast, over 100 µM. For the same compound, the TGI in the test with DU-145 prostate and in the test with BT-549 breast was over 100 µM throughout.
On to `C[C@@H]1CC[C@@]2(OC1)O[C@H]1C[C@H]3[C@@H]4CC[C@H]5C[C@@H](OC6OC(CO)C(OC7OC(CO)C(O)C(OC8OCC(O)C(O)C8O)C7OC7OC(CO)C(O)C(O)C7O)C(O)C6O)[C@H](O)C[C@]5(C)[C@H]4CC[C@]3(C)[C@H]1[C@@H]2C` (some centres not stated), for which the TGI amounted to 31.8 µM in the test on MDA-MB-435; 15.3 µM in the test on PC-3 prostate; 15.9 µM in the test on HS 578T breast; 6.71 µM in the test on MDA-MB-231 breast; 28 µM in the test with T-47D breast; 13.9 µM in the test on DU-145 prostate. This compound gave a TGI with BT-549 breast of 7.47 µM.
Regarding `O=C(O)C1CCCCN1c1ccccc1[N+](=O)[O-]` (configuration not stated), the TGI in the test on KM20L2 colon, in the test on XF 498 CNS, with LXFL 529 NSCLC, in the test with M19-MEL melanoma and in the test on DMS 114 small cell lung was over 100 µM each time.
Turning to `O=c1oc2cc(O)ccc2c(O)c1Cc1c(O)c2ccc(O)cc2oc1=O`, the TGI in the test with MDA-MB-435, in the test on PC-3 prostate, with HS 578T breast, with MDA-MB-231 breast, in the test on T-47D breast and with DU-145 prostate was over 100 µM each time. This compound gave a TGI in the test with BT-549 breast of over 100 µM.
Regarding `CN(Cc1cnc2c(N)nc(N)nc2n1)c1ccc(Cl)cc1`, the TGI in the test on MDA-MB-435, in the test on PC-3 prostate, in the test with HS 578T breast, in the test with MDA-MB-231 breast, with T-47D breast and in the test on DU-145 prostate was over 100 µM in each case. Moreover, in the test with BT-549 breast, the TGI is over 100 µM.
On to `BrCC[N+]12CC[N+](CCBr)(CC1)C2`, for which the TGI with MDA-MB-435, in the test with PC-3 prostate, in the test on HS 578T breast, in the test on MDA-MB-231 breast, in the test with 786-0 renal and with T-47D breast was over 100 µM each time. Besides, the TGI with DU-145 prostate and in the test with BT-549 breast was over 100 µM in each case.
Regarding `CCn1cnnc1-c1nsc2ccccc12`, the TGI with KM20L2 colon, in the test on LXFL 529 NSCLC, with M19-MEL melanoma and in the test with DMS 114 small cell lung was over 100 µM each time.
On to `O=[N+]([O-])c1ccc(NNN=Nc2ccc(-c3nc4ccccc4s3)cc2)c([N+](=O)[O-])c1`, for which the TGI with MDA-MB-435 was 66.2 µM; in the test with PC-3 prostate it was 73.3 µM; with HS 578T breast, over 100 µM; with MDA-MB-231 breast, 64.3 µM; in the test on 786-0 renal, 50.6 µM; with T-47D breast, over 100 µM. Also, the TGI in the test on DU-145 prostate is over 100 µM; in the test on BT-549 breast it was 58.7 µM.
Turning to `CC(=O)Nc1cccc(N=NN(C)C)c1`, the TGI in the test on SN12K1 renal, in the test on KM20L2 colon, with XF 498 CNS, in the test on P388/ADR leukemia, in the test on M19-MEL melanoma and in the test on DMS 114 small cell lung was over 100 µM throughout. For the same compound, the TGI in the test on P388 leukemia is over 100 µM.
In the test on KM20L2 colon, `O=C(N/N=C/c1cc(Br)cc(Br)c1[O-])c1ccccc1O.O=C(N/N=C/c1cc(Br)cc(Br)c1[O-])c1ccccc1O.[Co+2]` gave a TGI of 11.6 µM.
For `NS(=O)(=O)c1ccc(/C=C/c2ccc(O)cc2)cc1`, the GI50 in the test with MDA-MB-435 was 20.3 µM; in the test with HS 578T breast, 28.9 µM. The TGI in the test with MDA-MB-435 was over 100 µM; with PC-3 prostate, 97.7 µM; with HS 578T breast, over 100 µM; in the test on MDA-MB-231 breast it was 60.7 µM; with 786-0 renal, 89.6 µM; in the test with T-47D breast, 71.6 µM. In the test with DU-145 prostate, this compound yielded a TGI of over 100 µM.
Regarding `CCC1NC(N=Nc2ccc([N+](=O)[O-])cc2)(P(=O)(OC(C)C)OC(C)C)OC1=O` (configuration not stated), the TGI in the test on KM20L2 colon, with XF 498 CNS, with LXFL 529 NSCLC and in the test on M19-MEL melanoma was over 100 µM each time.
On to `O=c1oc2c(Cl)cc(Cl)cc2cc1C1=CSC2=NCCN12`, for which the TGI in the test with MDA-MB-435, with PC-3 prostate, with MDA-MB-231 breast, in the test with 786-0 renal, in the test with T-47D breast and with DU-145 prostate was over 100 µM in each case. Moreover, in the test with BT-549 breast, the TGI is 74.4 µM.
For the compound `CCOC(=O)c1nnc2c(C#N)c(-c3ccccc3)c(C)n2c1N`, the TGI in the test on MDA-MB-435 is over 100 µM; in the test on PC-3 prostate it was over 100 µM; with HS 578T breast, 85.7 µM; in the test with MDA-MB-231 breast it was over 100 µM; in the test on 786-0 renal, over 100 µM; with T-47D breast it was over 100 µM. For the same compound, the TGI in the test with DU-145 prostate and in the test with BT-549 breast was over 100 µM throughout.
`CC(C)NC(=O)OCc1c2c(n(C)c1COC(=O)NC(C)C)-c1ccccc1CC2`: the TGI in the test with SN12K1 renal worked out at 24.4 µM; in the test on KM20L2 colon, 28 µM; in the test on XF 498 CNS, 28.2 µM; with P388/ADR leukemia it was 5.27 µM; in the test on M19-MEL melanoma it was 23 µM; in the test with DMS 114 small cell lung, 17 µM.
For `c1ccc([I+]c2ccccc2)cc1`, the TGI in the test with MDA-MB-435, with PC-3 prostate, with HS 578T breast, in the test on MDA-MB-231 breast, in the test with 786-0 renal and in the test with T-47D breast was over 100 µM throughout. Besides, the TGI with DU-145 prostate and in the test on BT-549 breast was over 100 µM in each case.
For the compound `CC1=CC2c3cccc4[nH]cc(c34)CC2N(C)C1` (configuration not stated), the TGI with SN12K1 renal is over 31.6 µM; in the test with KM20L2 colon, over 100 µM; with XF 498 CNS, 99.1 µM; with P388/ADR leukemia, over 73.1 µM; in the test on M19-MEL melanoma, over 100 µM; in the test on DMS 114 small cell lung it was over 100 µM. Moreover, the TGI in the test with P388 leukemia is over 100 µM.
Turning to `CC(Cl)CC(=O)OCC1CCCN2CCCCC12` (configuration not stated), the TGI in the test on MDA-MB-435, in the test on PC-3 prostate, with HS 578T breast, in the test with MDA-MB-231 breast, with 786-0 renal and in the test on T-47D breast was over 100 µM each time. For the same compound, the TGI with DU-145 prostate and with BT-549 breast was over 100 µM each time.
Consider `Cc1ccc2c(=O)c3ccccc3sc2c1`, for which the TGI in the test on KM20L2 colon, in the test on LXFL 529 NSCLC and in the test with M19-MEL melanoma was over 100 µM each time.

These data come from PubChem BioAssay (NCI).
